Experimental data from the CheMixHub viscosity set.
± gives the uncertainty stated by the source.

Test: xn = mol fraction of the nth substance listed

C1CCCCC1 + CCC(C)O
viscosity [mPa·s], 101.33 kPa
Details	298.15 K	303.15 K	313.15 K
x1 = 0.0998	2.334 ± 0.027	–	1.442 ± 0.017
x1 = 0.2045	1.841 ± 0.022	–	1.19 ± 0.014
x1 = 0.3002	1.524 ± 0.018	–	1.023 ± 0.012
x1 = 0.4007	1.285 ± 0.015	–	0.8968 ± 0.011
x1 = 0.4995	1.116 ± 0.013	–	0.8098 ± 0.0095
x1 = 0.6	1.001 ± 0.012	–	0.7497 ± 0.0088
x1 = 0.7028	0.9323 ± 0.011	–	0.7106 ± 0.0083
x1 = 0.8005	0.8895 ± 0.01	–	0.6896 ± 0.0081
x1 = 0.9036	0.872 ± 0.01	–	0.6801 ± 0.008
x2 = 0.1002	–	0.8606 ± 0.011	–
x2 = 0.1978	–	0.9196 ± 0.011	–
x2 = 0.3031	–	1.004 ± 0.012	–
x2 = 0.4019	–	1.107 ± 0.014	–
x2 = 0.4961	–	1.244 ± 0.015	–
x2 = 0.5974	–	1.435 ± 0.017	–
x2 = 0.695	–	1.68 ± 0.02	–
x2 = 0.799	–	1.996 ± 0.023	–
x2 = 0.8924	–	2.321 ± 0.027	–

C1CCCCC1 + CCCCCCCCCC
Details	viscosity [mPa·s]
298.15 K, 101 kPa, x2 = 0.1357	0.8838 ± 0.012
298.15 K, 101 kPa, x2 = 0.1638	0.8739 ± 0.011
298.15 K, 101 kPa, x2 = 0.1909	0.8684 ± 0.011
298.15 K, 101 kPa, x2 = 0.2292	0.8595 ± 0.011
298.15 K, 101 kPa, x2 = 0.2677	0.8527 ± 0.011
298.15 K, 101 kPa, x2 = 0.2769	0.8484 ± 0.011
298.15 K, 101 kPa, x2 = 0.316	0.8438 ± 0.011
298.15 K, 101 kPa, x2 = 0.3563	0.8348 ± 0.011
298.15 K, 101.33 kPa, x1 = 0.1037	0.836 ± 0.005
298.15 K, 101.33 kPa, x1 = 0.1316	0.8418 ± 0.0072
298.15 K, 101.33 kPa, x1 = 0.2065	0.824 ± 0.005
298.15 K, 101.33 kPa, x1 = 0.254	0.8386 ± 0.0072
298.15 K, 101.33 kPa, x1 = 0.3077	0.818 ± 0.005
298.15 K, 101.33 kPa, x1 = 0.3302	0.8292 ± 0.0071
298.15 K, 101.33 kPa, x1 = 0.4003	0.818 ± 0.005
298.15 K, 101.33 kPa, x1 = 0.467	0.8331 ± 0.0071
298.15 K, 101.33 kPa, x1 = 0.5005	0.818 ± 0.005
298.15 K, 101.33 kPa, x1 = 0.5494	0.8222 ± 0.007
298.15 K, 101.33 kPa, x1 = 0.6	0.814 ± 0.005
298.15 K, 101.33 kPa, x1 = 0.6289	0.8303 ± 0.0071
298.15 K, 101.33 kPa, x1 = 0.7015	0.8247 ± 0.0071
298.15 K, 101.33 kPa, x1 = 0.7045	0.812 ± 0.005
298.15 K, 101.33 kPa, x1 = 0.7719	0.8409 ± 0.0072
298.15 K, 101.33 kPa, x1 = 0.802	0.819 ± 0.006
298.15 K, 101.33 kPa, x1 = 0.8324	0.8412 ± 0.0072
298.15 K, 101.33 kPa, x1 = 0.8857	0.8612 ± 0.0073
298.15 K, 101.33 kPa, x1 = 0.9001	0.845 ± 0.006
298.15 K, 101.33 kPa, x1 = 0.9309	0.8746 ± 0.0074
298.15 K, 101.33 kPa, x2 = 0.0178	0.8968 ± 0.0076
303.15 K, 101.33 kPa, x1 = 0.1037	0.78 ± 0.005
303.15 K, 101.33 kPa, x1 = 0.2065	0.766 ± 0.005
303.15 K, 101.33 kPa, x1 = 0.3077	0.761 ± 0.005
303.15 K, 101.33 kPa, x1 = 0.4003	0.761 ± 0.005
303.15 K, 101.33 kPa, x1 = 0.5005	0.76 ± 0.005
303.15 K, 101.33 kPa, x1 = 0.6	0.756 ± 0.005
303.15 K, 101.33 kPa, x1 = 0.7045	0.754 ± 0.005
303.15 K, 101.33 kPa, x1 = 0.802	0.759 ± 0.005
303.15 K, 101.33 kPa, x1 = 0.9001	0.78 ± 0.005
308.15 K, 101 kPa, x1 = 0.0439	0.7345 ± 0.012
308.15 K, 101 kPa, x1 = 0.175	0.7272 ± 0.012
308.15 K, 101 kPa, x1 = 0.2106	0.7254 ± 0.012
308.15 K, 101 kPa, x1 = 0.3096	0.7164 ± 0.012
308.15 K, 101 kPa, x1 = 0.3863	0.7147 ± 0.012
308.15 K, 101 kPa, x1 = 0.4943	0.7122 ± 0.012
308.15 K, 101 kPa, x1 = 0.5864	0.7133 ± 0.012
308.15 K, 101 kPa, x1 = 0.7303	0.7189 ± 0.012
308.15 K, 101 kPa, x1 = 0.8805	0.7325 ± 0.012
308.15 K, 101 kPa, x1 = 0.9385	0.7399 ± 0.012
308.15 K, 101.33 kPa, x1 = 0.1037	0.728 ± 0.005
308.15 K, 101.33 kPa, x1 = 0.2065	0.713 ± 0.005
308.15 K, 101.33 kPa, x1 = 0.3077	0.708 ± 0.005
308.15 K, 101.33 kPa, x1 = 0.4003	0.71 ± 0.005
308.15 K, 101.33 kPa, x1 = 0.5005	0.71 ± 0.005
308.15 K, 101.33 kPa, x1 = 0.6	0.702 ± 0.005
308.15 K, 101.33 kPa, x1 = 0.7045	0.699 ± 0.005
308.15 K, 101.33 kPa, x1 = 0.802	0.703 ± 0.005
308.15 K, 101.33 kPa, x1 = 0.9001	0.716 ± 0.005
313.15 K, 101 kPa, x1 = 0.0439	0.6849 ± 0.012
313.15 K, 101 kPa, x1 = 0.175	0.6717 ± 0.012
313.15 K, 101 kPa, x1 = 0.2106	0.6706 ± 0.012
313.15 K, 101 kPa, x1 = 0.3096	0.666 ± 0.011
313.15 K, 101 kPa, x1 = 0.3863	0.6618 ± 0.011
313.15 K, 101 kPa, x1 = 0.4943	0.6596 ± 0.011
313.15 K, 101 kPa, x1 = 0.5864	0.6577 ± 0.011
313.15 K, 101 kPa, x1 = 0.7303	0.6684 ± 0.011
313.15 K, 101 kPa, x1 = 0.8805	0.6936 ± 0.012
313.15 K, 101 kPa, x1 = 0.9385	0.7077 ± 0.012

COC(C)=O + O
298.15 K, 101 kPa
Details	viscosity [mPa·s]
x1 = 0.007776	0.9505 ± 0.0044
x1 = 0.01059	0.9711 ± 0.0044
x1 = 0.01834	1.021 ± 0.0045
x1 = 0.02351	1.05 ± 0.0045
x1 = 0.0294	1.087 ± 0.0046
x1 = 0.03745	1.118 ± 0.0046
x1 = 0.03898	1.127 ± 0.0046
x1 = 0.04509	1.146 ± 0.0046
x1 = 0.7729	0.4311 ± 0.0015
x1 = 0.8213	0.4084 ± 0.0014
x1 = 0.8787	0.3879 ± 0.0013
x1 = 0.9325	0.372 ± 0.0013
